This passage reports K app results from ChEMBL document CHEMBL1125959, “Synthesis and DNA binding properties of an amidine-linked and phenyl-containing analogue of distamycin A” (Bioorg Med Chem Lett, 1991).

The test system of experiment [1] is Nucleic Acid. Kind of experiment: The apparent DNA binding constant to bind with calf thymus DNA was determined by ethidium displacement assay. The experiment is classed as nucleic-acid assay. As to conditions: Bos taurus.
Experiment [2] concerns Nucleic Acid. Kind of experiment: The apparent DNA binding constant to bind with T4 DNA was determined by ethidium displacement assay. Type of experiment: nucleic-acid assay.

With `Cn1cc(NC(=O)c2cc(NC(=O)c3cc(NC=O)cn3C)cn2C)cc1C(=O)NCCC(=N)N`, the K app in experiment [1] was found to be 770000 M⁻¹.

Turning to `CN(C)CC/N=C(\N)c1cccc(NC(=O)c2cccc(NC=O)c2)c1`, the K app in experiment [2] was found to be 120000 M⁻¹; in experiment [1], 65000 M⁻¹.
